Data published in ChEMBL document CHEMBL1201862, “PubChem BioAssay data set” (2004).
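These data come from cells grown in 96-well plates and exposed to compound for 48 hours at five concentrations. Here, GI50 denotes the concentration required for 50% inhibition of growth.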 Active and inactive are the calls of the source. No stated cut-off is given here; in the data, active = GI50 up to about 1.1 µM and inactive = higher.

Tests used:
Assay in all cases: NCI tumour cell line growth inhibition, 48 h
LOX IMVI = tested on: LOX IMVI
K562 = tested on: K562
HOP-92 = tested on: HOP-92
U-251 = tested on: U-251
NCI-H522 = tested on: NCI-H522
RPMI-8226 = tested on: RPMI-8226
TK-10 = tested on: TK-10
MOLT-4 = tested on: MOLT-4
SF-539 = tested on: SF-539
SK-MEL-2 = tested on: SK-MEL-2
Hs-578T = tested on: Hs-578T
DU-145 = tested on: DU-145
SF-295 = tested on: SF-295
UACC-62 = tested on: UACC-62
SW-620 = tested on: SW-620
CAKI-1 = tested on: CAKI-1
SR = tested on: SR
NCI-H460 = tested on: NCI-H460
MDA-N = tested on: MDA-N
COLO 205 = tested on: COLO 205

Compound	GI50 (LOX IMVI)	GI50 (K562)	GI50 (HOP-92)	GI50 (U-251)	GI50 (NCI-H522)	GI50 (RPMI-8226)	GI50 (TK-10)	GI50 (MOLT-4)	GI50 (SF-539)	GI50 (SK-MEL-2)	GI50 (Hs-578T)	GI50 (DU-145)	GI50 (SF-295)	GI50 (UACC-62)	GI50 (SW-620)	GI50 (CAKI-1)	GI50 (SR)	GI50 (NCI-H460)	GI50 (MDA-N)	GI50 (COLO 205)
CC(=O)C(CN1CCOCC1)C(c1ccccc1)c1c(O)c2ccccc2oc1=O (stereo not given)	> 100 µM (inactive)	> 100 µM (inactive)	32 µM (inactive)	> 100 µM (inactive)	> 100 µM (inactive)	43.1 µM (inactive)	> 100 µM (inactive)	> 100 µM (inactive)	> 100 µM (inactive)	> 100 µM (inactive)	> 100 µM (inactive)	> 100 µM (inactive)	> 100 µM (inactive)	> 100 µM (inactive)	> 100 µM (inactive)	> 100 µM (inactive)	64.7 µM (inactive)	> 100 µM (inactive)	> 100 µM (inactive)	> 100 µM (inactive)
COC(=O)[C@@]12C(=O)C(C)C(=O)[C@]1(C)C(C)=C[C@H]1[C@]3(C=O)CC[C@H](OC(C)=O)C(C)(C)[C@H]3CC[C@@]12C (stereo not given in full)	70.6 µM (inactive)	38.6 µM (inactive)	> 100 µM (inactive)	> 100 µM (inactive)	51.9 µM (inactive)	75.2 µM (inactive)	> 100 µM (inactive)	11.9 µM (inactive)	> 100 µM (inactive)	> 100 µM (inactive)	> 100 µM (inactive)	> 100 µM (inactive)	> 100 µM (inactive)	> 100 µM (inactive)	> 100 µM (inactive)	93.1 µM (inactive)	7.48 µM (inactive)	> 100 µM (inactive)	> 100 µM (inactive)	> 100 µM (inactive)
Nc1ncc(Cl)c(NCC2(CO)CC(CCc3ccccc3)C2)n1 (stereo not given)	0.785 µM (active)	0.321 µM (active)	5.69 µM (inactive)	44.6 µM (inactive)	> 76.2 µM (inactive)	2.79 µM (inactive)	14.4 µM (inactive)	1.82 µM (inactive)	> 100 µM (inactive)	> 100 µM (inactive)	> 100 µM (inactive)	> 100 µM (inactive)	5.2 µM (inactive)	> 100 µM (inactive)	> 100 µM (inactive)	12 µM (inactive)	2.38 µM (inactive)	> 55 µM (inactive)	> 100 µM (inactive)	> 100 µM (inactive)
CC(=O)c1cc2c(s1)C(=O)c1ccccc1C2=O	0.346 µM (active)	2.09 µM (inactive)	4.18 µM (inactive)	2.37 µM (inactive)	0.944 µM (active)	2.38 µM (inactive)	5.47 µM (inactive)	2.48 µM (inactive)	1.44 µM (inactive)	4.31 µM (inactive)	2.84 µM (inactive)	1.26 µM (inactive)	2.79 µM (inactive)	2.51 µM (inactive)	0.951 µM (active)	9.53 µM (inactive)	5.66 µM (inactive)	1.05 µM (active)	1.63 µM (inactive)	4.72 µM (inactive)
C=C(C)[C@@H](O)[C@H](O)C[C@H](C)C1CC[C@]2(C)C1=CC[C@@H]1[C@@]3(C)CC[C@@H](OC(C)=O)C(C)(C)[C@@H]3C[C@@H](OC3OC(COC(C)=O)C(O)C(O)C3O)[C@]12C (stereo not given in full)	1.73 µM (inactive)	2.02 µM (inactive)	2.37 µM (inactive)	2.32 µM (inactive)	1.67 µM (inactive)	2.01 µM (inactive)	3.39 µM (inactive)	2.17 µM (inactive)	3.66 µM (inactive)	1.77 µM (inactive)	2.81 µM (inactive)	3.4 µM (inactive)	2.16 µM (inactive)	1.9 µM (inactive)	3.34 µM (inactive)	3.52 µM (inactive)	1.99 µM (inactive)	2.45 µM (inactive)	2.81 µM (inactive)	1.93 µM (inactive)
